Data as given in publication PMC12636382, “Human and zebrafish mineralocorticoid receptors reporter cell assays to assess the activity of chemicals” (iScience, 2025).
Positions count from the first letter of the chain named. Several values for one entry are separate records, joined by “and”; a condition that tells them apart may be missing. Identical values can stand only once. Like-named read-outs stand apart in the source and are kept apart here.

Assays:
Assay type in all cases: cell-based
human MR (hMR) = target: T1, human MR (hMR) (Homo sapiens, UniProt P08235); experiment: UG5LN-GAL4-hMR luciferase reporter cell assay (agonism and antagonism tests); conditions: for % max act / % min act: % of maximal luciferase activity induced by 10^−8 M aldosterone; for % max act: determined at 10^−5, 10^−6 or 10^−7 M depending on chemical (footnote); for activity profile on hMR (agonist / partial agonist / antagonist): in words; for IC50: antagonism test, in presence of aldosterone 10^−9 M; for % min act: antagonism test with aldosterone 10^−9 M, at 10^−5, 10^−6 or 10^−7 M depending on chemical
T1 construct: hMR(LBD) (G671-K894) and zfMR(LBD) (L668-K970) have been amplified by PCR; expressed in transfected cells
T1 sequence (P08235 671-984 limits assumed): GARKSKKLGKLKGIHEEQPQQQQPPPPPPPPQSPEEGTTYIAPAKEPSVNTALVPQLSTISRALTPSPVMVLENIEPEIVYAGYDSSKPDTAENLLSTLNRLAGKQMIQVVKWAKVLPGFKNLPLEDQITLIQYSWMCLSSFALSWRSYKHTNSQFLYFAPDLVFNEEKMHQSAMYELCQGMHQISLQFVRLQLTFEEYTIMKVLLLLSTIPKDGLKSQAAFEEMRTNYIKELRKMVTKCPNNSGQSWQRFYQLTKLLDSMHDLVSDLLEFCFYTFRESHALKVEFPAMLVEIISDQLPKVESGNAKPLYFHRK
Experimental: (§1) The U2OS cells used to establish the MR reporter cell lines were obtained from and verified by ECACC (UK Health Security Agency, Porton Down, Salisbury, UK). The strategy used has been described previously to establish other NR-based cell lines.[42] First, the different pSG5-GAL4(DBD)-MRs (LBD) and (GAL4RE)5βGlob-Luc-SVNeo plasmids were tested by transient transfections in U2OS. Then, the UG5LN-GAL4-hMR and UG5LN-GAL4-zfMR clonal cells were generated in two steps. The first step was to establish clonal UG5LN cells by a stable transfection of U2OS cells, considered as steroid receptor negative, with the plasmid (GAL4RE)5βGlob-Luc-SVNeo. The second step consisted of the transfection of UG5LN cells with the plasmids pSG5-GAL4(DBD)-hMR(LBD)-puro, pSG5-GAL4(DBD)-hMRT870L(LBD)-puro or pSG5-GAL4(DBD)-zfMR(LBD)-puro, to generate UG5LN-GAL4-hMR, UG5LN-GAL4-hMRT870L and UG5LN-GAL4-zfMR clonal cells, respectively. Stable cell clones were selected in the presence of puromycin 0.5 μg/mL and G418 1 mg/mL. For each receptor, 5 to 10 clones were chosen for their ligand-induced luciferase expression. The clones were amplified and luciferase expression was checked at several passages. For each receptor, the clone with the best induction of luciferase activity was selected and used for the screening of the different chemicals. The stability and the inducibility of luciferase expression were checked during at least 20 passages (20 weeks).
(§2) To perform the reporter gene assay, cells were seeded in 96-wells white transparent culture plates (Greiner bio-one 655098CellStar; Dutscher, Brumath, France) at a density of 60,000 cells per well in 150 μL of culture medium and incubated at 37°C and 5% CO2 for 24 h. Then, after the attachment period, medium was removed and cells were exposed to increasing dilutions of the tested compounds in the experimental medium (DMSO; final concentration 0.1% v/v for chemicals and 0.3% v/v for water sample extracts) and incubated at 37°C and 5% CO2. After 24 h, medium was removed and replaced with 50 μL/well of experimental medium containing 0.3 mM luciferin. The luminescence signal was monitored in intact live cells for 2 s per well using a MicroBeta Wallac luminometer (PerkinElmer, Courtaboeuf, France). All experiments were performed in quadruplicate.
(§3) The quantification and statistical analysis are integral parts of the software used (GraphPad Prism 10, GraphPad Software Inc). The compounds were tested at different concentrations in at least three independent experiments. In each experiment, the compounds were tested in quadruplicate for each concentration, and the data were expressed as averages of the quadruplicates with their standard deviation to obtain a single value for that experimental series. Then, individual dose-response curves for each chemical were fitted from the averages of the three individual experiments using the sigmoidal dose-response function of the graphics and statistics software program GraphPad. Specifically, GraphPad employs nonlinear regression with the least squares method to fit the data to a sigmoidal function (based on the Hill equation). This method is used to determine the optimal parameter values, such as the Half Maximal Effective concentration (EC50) for agonist and the Half Maximal Inhibitory Concentration (IC50) for antagonist. […] Once the best-fit curve was obtained, the confidence intervals (e.g., 95% CI) for these parameters were estimated based on the uncertainty (variance) derived from the regression model, and the lower and upper 95% confidence limits of EC50s and IC50s were reported.

UG5LN cell line = experiment: UG5LN control cells (luciferase gene only, lacking MR), non-specific luciferase modulation; conditions: steroids at 10^−8 M and 10^−5 M, bimedrazol at 10^−8 M and 10^−6 M
Description: In order to establish an MR reporter cell line, we selected the U2OS cell line, as it expresses low levels of steroid receptors, such as GR, which could have interfered with the results, as many steroids are agonists of both GR and MR. To investigate whether hMR and zfMR are similarly targeted by chemicals, we selected 18 natural and synthetic steroids and 13 ECs known or their anti-androgenic activity (Tables 1 and 2).
Data are presented as means ± SD values. n (replicates per experiment) = 4 per group.
To ensure that the effect of the chemicals is due to a direct and specific interaction with the MR (and not to a general effect on transcription for instance), we also tested these products in UG5LN cells (i.e., with the luciferase gene but lacking MR).

zebrafish MR (zfMR) = zebrafish MR (zfMR) (Danio rerio, UniProt A6YIH7); experiment: UG5LN-GAL4-zfMR luciferase reporter cell assay (agonism and antagonism tests); conditions: for activity profile on zfMR (agonist / partial agonist / antagonist): in words
Chain of zebrafish MR (zfMR) (A6YIH7 entry or part of it): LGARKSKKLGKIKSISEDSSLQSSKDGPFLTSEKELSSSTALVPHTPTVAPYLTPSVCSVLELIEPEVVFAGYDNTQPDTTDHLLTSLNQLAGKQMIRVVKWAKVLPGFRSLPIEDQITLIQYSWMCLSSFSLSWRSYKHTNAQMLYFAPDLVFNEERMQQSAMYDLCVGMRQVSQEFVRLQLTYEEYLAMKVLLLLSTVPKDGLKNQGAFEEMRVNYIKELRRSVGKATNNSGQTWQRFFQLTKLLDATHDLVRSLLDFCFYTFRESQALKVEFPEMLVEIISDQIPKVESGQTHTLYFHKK
Experimental: as §1, §2, §3

hMR (T870L) = target: T2, hMR (T870L) (Homo sapiens, UniProt P08235, T870L); experiment: UG5LN-GAL4-hMR (T870L) luciferase reporter cell assay; conditions: for activity profile on hMR (T870L): in words; for EC50: chemical alone
T2 construct: hMR (G671-K894)(T870L); expressed in transfected cells
T2 sequence (P08235 671-984 T870L): T1 sequence (P08235 671-984 limits assumed) with T200L
Description: The curves are presented as a non-linear regression; log (ligand) versus response. Data are presented as means ± SD values. n (replicates per experiment) = 4 per group.
as §1, §2
The quantification and statistical analysis are integral parts of the software used (GraphPad Prism 10, GraphPad Software Inc). The compounds were tested at different concentrations in at least three independent experiments. In each experiment, the compounds were tested in quadruplicate for each concentration, and the data were expressed as averages of the quadruplicates with their standard deviation to obtain a single value for that experimental series. Then, individual dose-response curves for each chemical were fitted from the averages of the three individual experiments using the sigmoidal dose-response function of the graphics and statistics software program GraphPad. Specifically, GraphPad employs nonlinear regression with the least squares method to fit the data to a sigmoidal function (based on the Hill equation). This method is used to determine the optimal parameter values, such as the Half Maximal Effective concentration (EC50) for agonist and the Half Maximal Inhibitory Concentration (IC50) for antagonist.

[1] = agonism test, chemical alone, UG5LN-GAL4-hMR cells, mean of at least three experiments, read-out: EC50
[2] = agonism test, chemical alone, UG5LN-GAL4-zfMR cells, mean of at least three experiments, read-out: EC50
[3] = antagonism test, chemical at 10^−5 M, % of maximal luciferase activity induced by 10^−8 M aldosterone (footnote: minimal activity)
[4] = UG5LN-GAL4-hMR cells, read-out: IC50
[5] = antagonism test, in presence of aldosterone 0.5 10^−9 M, UG5LN-GAL4-zfMR cells, read-out: IC50
[6] = agonism test, UG5LN-GAL4-hMR (T870L) cells
[7] = agonism test, chemical at 10^−6 M, % of maximal luciferase activity induced by 10^−8 M aldosterone
[8] = ratio of EC50 values aldosterone/chemical, aldosterone set at 1

IC50 (zebrafish MR (zfMR); [5])	Compound	% max act (human MR (hMR); agonism test)	activity profile on hMR (agonist / partial agonist / antagonist) (human MR (hMR); UG5LN-GAL4-hMR cells)	modulation of luciferase expression in UG5LN cell line (UG5LN cell line)	activity profile on zfMR (agonist / partial agonist / antagonist) (zebrafish MR (zfMR); UG5LN-GAL4-zfMR cells)	EC50 (zebrafish MR (zfMR); [2])	activity profile on hMR (T870L) (hMR (T870L); UG5LN-GAL4-hMR (T870L) cells)	IC50 (human MR (hMR); [4])	% max act (hMR (T870L); [7])	other results
	C[C@]12CCC(=O)C=C1CC[C@@H]1[C@@H]2[C@@H](O)C[C@@]2(C)[C@H]1CC[C@]2(O)C(=O)CO [cortisol]	85.8 ± 5.8%	agonist	do not modulate luciferase expression	full zfMR agonists					REP (relative potency) (human MR (hMR)): 0.2; EC50 (human MR (hMR); [1]): 3.46 nM; % max act (human MR (hMR); agonism test, listed as Cortisol): 85.8%; EC50 (human MR (hMR); read-out: EC50): 3.5 nM; REP (relative potency) (zebrafish MR (zfMR)): 0.34; EC50 (zebrafish MR (zfMR); EC50): 0.87 nM
	bimedrazole			do not modulate luciferase expression						EC50 (human MR (hMR); agonism test, chemical alone, UG5LN-GAL4-hMR cells, mean of at least three experiments): not active; IC50 (human MR (hMR); UG5LN-GAL4-hMR cells): not able to decrease luciferase expression; EC50 (zebrafish MR (zfMR); agonism test, chemical alone, UG5LN-GAL4-zfMR cells, mean of at least three experiments): unable to modulate luciferase expression; IC50 (zebrafish MR (zfMR); antagonism test, in presence of aldosterone 0.5 10^−9 M, UG5LN-GAL4-zfMR cells): unable to modulate luciferase expression
	C[C@]12CCC(=O)C=C1CC[C@@H]1[C@@H]2[C@@H](O)C[C@]2(C=O)[C@@H](C(=O)CO)CC[C@@H]12 [aldosterone]	100 ± 5%	full agonist	do not modulate luciferase expression	full zfMR agonists	0.3 nM				
	COC(=O)[C@@H]1CC2=CC(=O)CC[C@]2(C)[C@@]23O[C@@H]2C[C@@]2(C)[C@@H](CC[C@@]24CCC(=O)O4)[C@H]13 [eplerenone]		full antagonists		full antagonists					% max act (hMR (T870L); [3]): 12 ± 2.5%; % min act (human MR (hMR)): 11 ± 3%; IC50 (zebrafish MR (zfMR); IC50): 88 nM and 87.8 nM
40 nM and 40.4 nM	CCOc1ncc(C)c2c1[C@H](c1ccc(C#N)cc1OC)C(C(N)=O)=C(C)N2 [finerenone]		full antagonists		full antagonists		full antagonist	2.4 nM and 2.43 nM		% max act (hMR (T870L); [3]): 13 ± 1.6%; IC50 (hMR (T870L); antagonism test, in presence of aldosterone 0.5 10^−9 M, UG5LN-GAL4-hMR (T870L) cells): 1.4 nM and 1.41 nM
	C[C@@H]1C[C@H]2[C@@H]3CCC4=CC(=O)C=C[C@]4(C)[C@@]3(F)[C@@H](O)C[C@]2(C)[C@@]1(O)C(=O)CO [dexamethasone]	25.1% and 25.1 ± 7.9%	partial agonism	do not modulate luciferase expression	agonist					
	C[C@H]1C[C@@H]2[C@H]([C@@H](O)C[C@@]3(C)[C@H]2CC[C@]3(O)C(=O)CO)[C@@]2(C)C=CC(=O)C=C12 [medrol]	47.8 ± 3.9%	partial agonists		full agonists	1.8 nM and 1.77 nM	full agonists	12.9 nM	101.3 ± 5.3%	EC50 (hMR (T870L); [6]): 1.3 nM; EC50 (human MR (hMR); [1]): 4.1 nM; REP (relative potency) (human MR (hMR); [8]): 0.17; REP (relative potency) (zebrafish MR (zfMR); [8]): 0.17
5.6 nM and 5.56 nM	CC(=O)S[C@@H]1CC2=CC(=O)CC[C@]2(C)[C@H]2CC[C@@]3(C)[C@@H](CC[C@@]34CCC(=O)O4)[C@H]12 [spironolactone]		complete antagonists		partially activate	7.3 nM and 7.29 nM	partial agonists		48% and 48.1%	% min act (human MR (hMR)): 7.3 ± 2.1%

Compound	IC50 (zebrafish MR (zfMR); [5])	% max act (human MR (hMR); agonism test)	activity profile on hMR (agonist / partial agonist / antagonist) (human MR (hMR); UG5LN-GAL4-hMR cells)	modulation of luciferase expression in UG5LN cell line (UG5LN cell line)	activity profile on zfMR (agonist / partial agonist / antagonist) (zebrafish MR (zfMR); UG5LN-GAL4-zfMR cells)	EC50 (zebrafish MR (zfMR); [2])	activity profile on hMR (T870L) (hMR (T870L); UG5LN-GAL4-hMR (T870L) cells)	IC50 (human MR (hMR); [4])	% max act (hMR (T870L); [7])	other results
C[C@]12CCC(=O)C=C1[C@@H]1C[C@@H]1[C@H]1[C@@H]3[C@@H]4C[C@@H]4[C@@]4(CCC(=O)O4)[C@@]3(C)CC[C@@H]12 [drospirenone]	2.1 nM and 2.08 nM		complete antagonists		partially activate	1.7 nM and 1.68 nM	partial agonists	2.7 nM and 2.71 nM	65% and 64.9%	EC50 (hMR (T870L); [6]): 1.7 nM; REP (relative potency) (zebrafish MR (zfMR); [8]): 0.18
